From article PMC10223062, “Discovery of Novel Thiophene/Hydrazones: In Vitro and In Silico Studies against Pancreatic Cancer” (Pharmaceutics, 2023) come the findings set out here.

Counter-ions that a name gives are not always drawn.

The test system of one assay is MIA PaCa-2 cell line. The assay can be described thus: 2D anticancer activity, MTT assay. The class given is cell-based. Particulars: Homo sapiens, 72 h exposure, read-out: IC50 in 2D cultured MIA PaCa-2 cell line. The protocol:
(§1) For the preliminary assessment of anticancer activity in a 2D cell culture system, an MIA PaCa-2 human pancreas epithelial carcinoma (CRL-1420™) cell line (ATCC, Manassas, VA, USA) was cultured in Dulbecco’s Modified Eagle Medium with 10% fetal bovine serum (FBS, v/v) (Gibco, Billings, MT, USA) and supplemented with 1% antibiotics (10,000 μg/mL streptomycin and 10,000 U/mL penicillin) (Gibco, Billings, MT, USA) at 37 °C in a humidified 5% CO2 atmosphere. For the in vitro modeling of the tumor microenvironment, compounds were also tested in a 3D spheroid test system. For this purpose, the MIA PaCa-2 human pancreas epithelial carcinoma (CRL-1420™) cell line and human dermal fibroblast cell line HDF (PCS-201-012) cells were used.
For the assessment of anticancer activity of the compounds, the MIA PaCa-2 cells were plated in 48-well microplates at 1.5 × 10^5 cells/mL and incubated for 24 h at 37 °C in 5% CO2 in accordance with a previously reported method. Following the day, the cells were treated with compounds in various concentrations between 0.1–100 µM dissolved in dimethyl sulfoxide (DMSO) (Sigma Aldrich, St. Louis, MO, USA). Following the 72 h of incubation, culture mediums were discarded and 0.5 mg/mL 3-(4,5-Dimethylthiazol-2-yl)-2,5-Diphenyltetrazolium Bromide (MTT) (Sigma Aldrich, St. Louis, MO, USA) was added to each well for an additional 2 h at 37 °C. After 2 h incubation, the medium was discarded and 100 µL of isopropanol (Sigma Aldrich, St. Louis, MO, USA) was added to the wells to dissolve formazan crystals. The optical density was measured at 570 nm wavelength using a microplate reader (Thermo Fisher Scientific Multiskan, Finland). Doxorubicin hydrochloride (DOX) (European Pharmacopoeia standard, Sigma) was used as internal positive control, and 0.5% DMSO (v/v) was used as negative control. The percentage of cell viability was determined by using the following equation:(1) Viability %=(Absorbancecompound)/(Absorbancenegative control)×100%
In general terms: Formazan colour is commonly taken as a measure of viable cells.

In the next assay the test system is HaCaT cell line. The experiment in a line: Cell viability (cytotoxicity) in healthy cells, MTT assay. It is filed as cell-based, human. Particulars: Homo sapiens, HaCaT; MTT, 72 h, healthy keratinocytes; read-out: IC50 in 2D cultured HaCaT cell line. The protocol:
HaCaT human healthy keratinocyte cells (CRL-2404™) (ATCC, Manassas, VA, USA) were cultured in DMEM (10% FBS, v/v) (Gibco, Billings, MT, USA), respectively and supplemented with 1% antibiotics (10.000 μg/mL streptomycin and 10.000 units/mL penicillin) (Gibco, Billings, MT, USA) at 37 °C in a humidified atmosphere of 5% CO2. For the preliminary assessment of the cytotoxicity of selected potent compounds in healthy cells, HaCaT cells were seeded 2 × 10^5 cells/mL in 96-well plate and incubated for 24 h. The following day the 7a, 7d, and 7f compounds were applied similarly as in the MIA PaCa-2 cytotoxicity protocol between concentrations 0.62–100 µM for 72 h and then MTT was applied.

Assay [1] has as its system MIA PaCa-2 tumor spheroids. The assay can be described thus: 3D spheroid formation/growth assay. Particulars: 10 µM, after 9 days of treatment. The class given is cell-based, human. On the procedure: as §1
For 3D spheroid formation, the MIA PaCa-2 cells (PC cell line) and HDF cells were used according to the 3D Bioprinting method. To better simulate the tumor microenvironment, PC cells were mixed (1:1) with human fibroblasts. Briefly, the MIA PaCa-2 cells and human fibroblasts at 70–80% confluency were added to a 6-well plate and incubated with biocompatible NanoShuttle TM-PL (Bioprinting Kit, Greiner Bio-One, Germany) overnight at 37 °C in a humidified 5% CO2 atmosphere. After the nanoparticles were taken up by the cells, they were resuspended and seeded into an ultra-low attachment 96-well plate at a volume of 100 μL (2000 PC cells and 2000 human fibroblasts per well) volume. The plate was placed on a magnetic drive and incubated at 37 °C in a humidified 5% CO2 atmosphere until spheroids were formed. After two days of incubation, the spheroids were photographed using light microscopy (Carl Zeiss Primo Vert, Germany). Fresh medium containing 0.1, 1, 10, and 100 µM of tested compound was added to the wells. Photos were taken every 72 h, and the medium was replaced every 72 h. The effect of the tested compounds in 3D PC cell cultures was examined by measuring the size change of spheroids using ImageJ software (ImageJ 2.0 software, USA).

Take `COc1cccc2c1C(=O)c1c(O)c3c(c(O)c1C2=O)C[C@@](O)(C(=O)CO)C[C@@H]3O[C@H]1C[C@H](N)[C@H](O)[C@H](C)O1` [DOX, Doxorubicin hydrochloride, reference compound]: the results for the IC50 with MIA PaCa-2 cell line and in the assay on HaCaT cell line were 350 ± 180 nM and 110 ± 80 nM, respectively. Also, the “Reduction in spheroid size” value in assay [1] came to 24%.
